Test results taken from ChEMBL document CHEMBL1140961, “Synthesis and biological activity of some new benzoxazoles” (2008).
Converted amounts (≈) assume the structure as drawn.

Columns and labels:
Assay type in all cases: functional
Staphylococcus aureus [1] = assay: Antimicrobial activity against Staphylococcus aureus ATCC 25923 after 24 hrs by disk diffusion method
Staphylococcus aureus [2] = assay: Antimicrobial activity against Staphylococcus aureus isolate after 24 hrs by disk diffusion method
Bacillus subtilis [3] = assay: Antimicrobial activity against Bacillus subtilis ATCC 6633 after 24 hrs by disk diffusion method
Bacillus subtilis [4] = assay: Antimicrobial activity against Bacillus subtilis isolate after 24 hrs by disk diffusion method
Escherichia coli [5] = assay: Antimicrobial activity against Escherichia coli ATCC 25922 after 24 hrs by disk diffusion method
Escherichia coli [6] = assay: Antimicrobial activity against Escherichia coli isolate after 24 hrs by disk diffusion method
Klebsiella pneumoniae [7] = assay: Antimicrobial activity against Klebsiella pneumoniae RSHM 574 after 24 hrs by disk diffusion method
Klebsiella pneumoniae [8] = assay: Antimicrobial activity against Klebsiella pneumoniae after 24 hrs by disk diffusion method
Pseudomonas aeruginosa = assay: Antimicrobial activity against Pseudomonas aeruginosa ATCC […] after 24 hrs by disk diffusion method
Candida albicans [9] = assay: Antimicrobial activity against Candida albicans ATCC 10231 after 24 to 48 hrs after 24 hrs by disk diffusion method
Candida albicans [10] = assay: Antimicrobial activity against Candida albicans isolate after 24 to 48 hrs after 24 hrs by disk diffusion method

Molecule | MIC (Staphylococcus aureus [1]; ATCC 25923, 24 h) | MIC (Staphylococcus aureus [2]) | MIC (Bacillus subtilis [3]; ATCC 6633, 24 h) | MIC (Bacillus subtilis [4]) | MIC (Escherichia coli [5]; ATCC 25922, 24 h) | MIC (Escherichia coli [6]) | MIC (Klebsiella pneumoniae [7]) | MIC (Klebsiella pneumoniae [8]) | MIC (Pseudomonas aeruginosa; ATCC 25853, 24 h) | MIC (Candida albicans [9]) | MIC (Candida albicans [10]) | MIC (Staphylococcus aureus [1]) | MIC (Bacillus subtilis [3]) | MIC (Escherichia coli [5]) | MIC (Pseudomonas aeruginosa)
CCS(=O)(=O)c1ccc2oc(-c3ccc(Cl)cc3)nc2c1 | 125 µg/mL (≈ 388 µM) | 125 µg/mL (≈ 388 µM) | 7.81 µg/mL (≈ 24.3 µM) | 31.2 µg/mL (≈ 97.1 µM) | 62.5 µg/mL (≈ 194 µM) | 62.5 µg/mL (≈ 194 µM) | 62.5 µg/mL (≈ 194 µM) | 125 µg/mL (≈ 388 µM) | 62.5 µg/mL (≈ 194 µM) | 125 µg/mL (≈ 388 µM) | 15.6 µg/mL (≈ 48.5 µM) | – | – | – | –
CCS(=O)(=O)c1ccc2oc(-c3ccc(C)cc3)nc2c1 | 125 µg/mL (≈ 415 µM) | 125 µg/mL (≈ 415 µM) | 31.2 µg/mL (≈ 104 µM) | 31.2 µg/mL (≈ 104 µM) | 62.5 µg/mL (≈ 207 µM) | 62.5 µg/mL (≈ 207 µM) | 62.5 µg/mL (≈ 207 µM) | 31.2 µg/mL (≈ 104 µM) | 62.5 µg/mL (≈ 207 µM) | 125 µg/mL (≈ 415 µM) | 31.2 µg/mL (≈ 104 µM) | – | – | – | –
OC(Cn1cncn1)(Cn1cncn1)c1ccc(F)cc1F [FLUCONAZOLE] | – | – | – | – | – | – | – | – | – | 1 µg/mL (≈ 3.27 µM) | 64 µg/mL (≈ 209 µM) | – | – | – | –
CCS(=O)(=O)c1ccc2oc(-c3cc(Br)ccc3Cl)nc2c1 | 125 µg/mL (≈ 312 µM) | 125 µg/mL (≈ 312 µM) | 62.5 µg/mL (≈ 156 µM) | 31.2 µg/mL (≈ 78 µM) | 62.5 µg/mL (≈ 156 µM) | 125 µg/mL (≈ 312 µM) | 62.5 µg/mL (≈ 156 µM) | 125 µg/mL (≈ 312 µM) | 62.5 µg/mL (≈ 156 µM) | 62.5 µg/mL (≈ 156 µM) | 62.5 µg/mL (≈ 156 µM) | – | – | – | –
CCS(=O)(=O)c1ccc2oc(-c3cccc(C)c3C)nc2c1 | 125 µg/mL (≈ 396 µM) | 125 µg/mL (≈ 396 µM) | 15.6 µg/mL (≈ 49.5 µM) | 31.2 µg/mL (≈ 99.1 µM) | 62.5 µg/mL (≈ 198 µM) | 250 µg/mL (≈ 793 µM) | 31.2 µg/mL (≈ 99.1 µM) | 125 µg/mL (≈ 396 µM) | 62.5 µg/mL (≈ 198 µM) | 31.2 µg/mL (≈ 99.1 µM) | 62.5 µg/mL (≈ 198 µM) | – | – | – | –
CCS(=O)(=O)c1ccc2oc(-c3ccc(F)cc3)nc2c1 | 125 µg/mL (≈ 409 µM) | 125 µg/mL (≈ 409 µM) | 31.2 µg/mL (≈ 102 µM) | 31.2 µg/mL (≈ 102 µM) | 62.5 µg/mL (≈ 205 µM) | 62.5 µg/mL (≈ 205 µM) | 31.2 µg/mL (≈ 102 µM) | 125 µg/mL (≈ 409 µM) | 62.5 µg/mL (≈ 205 µM) | 125 µg/mL (≈ 409 µM) | 31.2 µg/mL (≈ 102 µM) | – | – | – | –
CCS(=O)(=O)c1ccc2oc(Cc3ccccc3Cl)nc2c1 | 125 µg/mL (≈ 372 µM) | 125 µg/mL (≈ 372 µM) | 62.5 µg/mL (≈ 186 µM) | 31.2 µg/mL (≈ 93.1 µM) | 62.5 µg/mL (≈ 186 µM) | 125 µg/mL (≈ 372 µM) | 31.2 µg/mL (≈ 93.1 µM) | 125 µg/mL (≈ 372 µM) | 62.5 µg/mL (≈ 186 µM) | 62.5 µg/mL (≈ 186 µM) | 62.5 µg/mL (≈ 186 µM) | – | – | – | –
GENTAMICIN SULFATE | – | 1020 µg/mL | – | 512 µg/mL | – | 1 µg/mL | 8 µg/mL | 64 µg/mL | – | – | – | 0.06 µg/mL | 1 µg/mL | 0.5 µg/mL | 2 µg/mL
CC1(C)S[C@@H]2[C@H](NC(=O)[C@H](N)c3ccccc3)C(=O)N2[C@H]1C(=O)O.O.O.O [AMPICILLIN TRIHYDRATE] | 0.03 µg/mL | 2 µg/mL | 0.25 µg/mL | 8 µg/mL | 8 µg/mL | 256 µg/mL | 2 µg/mL | 256 µg/mL | 4100 µg/mL | – | – | – | – | – | –
CCS(=O)(=O)c1ccc2oc(-c3ccc(Br)cc3)nc2c1 | 125 µg/mL (≈ 341 µM) | 125 µg/mL (≈ 341 µM) | 15.6 µg/mL (≈ 42.7 µM) | 31.2 µg/mL (≈ 85.3 µM) | 62.5 µg/mL (≈ 171 µM) | 62.5 µg/mL (≈ 171 µM) | 62.5 µg/mL (≈ 171 µM) | 125 µg/mL (≈ 341 µM) | 62.5 µg/mL (≈ 171 µM) | 125 µg/mL (≈ 341 µM) | 31.2 µg/mL (≈ 85.3 µM) | – | – | – | –
CCS(=O)(=O)c1ccc2oc(-c3ccccc3F)nc2c1 | 125 µg/mL (≈ 409 µM) | 125 µg/mL (≈ 409 µM) | 62.5 µg/mL (≈ 205 µM) | 31.2 µg/mL (≈ 102 µM) | 62.5 µg/mL (≈ 205 µM) | 250 µg/mL (≈ 819 µM) | 31.2 µg/mL (≈ 102 µM) | 125 µg/mL (≈ 409 µM) | 62.5 µg/mL (≈ 205 µM) | 62.5 µg/mL (≈ 205 µM) | 62.5 µg/mL (≈ 205 µM) | – | – | – | –
CCS(=O)(=O)c1ccc2oc(-c3ccccc3Cl)nc2c1 | 125 µg/mL (≈ 388 µM) | 125 µg/mL (≈ 388 µM) | 15.6 µg/mL (≈ 48.5 µM) | 31.2 µg/mL (≈ 97.1 µM) | 62.5 µg/mL (≈ 194 µM) | 125 µg/mL (≈ 388 µM) | 31.2 µg/mL (≈ 97.1 µM) | 125 µg/mL (≈ 388 µM) | 62.5 µg/mL (≈ 194 µM) | 31.2 µg/mL (≈ 97.1 µM) | 62.5 µg/mL (≈ 194 µM) | – | – | – | –
